Data reported in patent publication US20090123564A1, “NOVEL COMPOSITIONS FOR HAIR DISORDERS AND PROCESS OF PREPARATION THEREOF” (priority 2006, published 2009).

Experiments:
leukenia cells P-388 = settings: P-388 cells; cited from earlier work
[1] = test system: human carcinoma nasopharynx cells; settings: cited from earlier work
leukenia cells L-1210 = settings: L-1210 cells; cited from earlier work
[2] = test system: dihydrotestosterone (DHT); settings: cited from earlier work
[3] = test system: androgen induced alopecia in hamsters; assay: Comparative efficacy of Vernonia anthelmintica extract against finasteride in androgen induced alopecia; type: in vivo; settings: for Mean ± SEM hair growth on a 0-3 scale: hamsters given testosterone i.m., treatments twice daily for 21 days, control 2.75 ± 0.171
Description: Hamsters were divided into five different groups; one normal control group, three drug treated groups and one testosterone control group. On day 0 of the study, the fur over and around the flank organs was shaved with electric clippers. 95% alcohol (100 μl/site) was applied topically, twice daily to Testosterone Control and Normal control groups for 21 days. Saw Palmetto cream was applied topically (100 mg/site) twice daily for 21 days. 100 μl/site of 2% solution of Vernonia anthelmintica extract was applied topically, twice daily for 21 days. Finasteride (0.6 mg/kg) was administered orally twice daily for 21 days. Different groups except normal control group was administered testosterone (25 mg, i.m. in divided doses of 33.3 μl on day 0, 7, and 14) 1-hour post drug administration. At day 7, the fur around the flank organs was re-clipped. The amount of hair growth on the area surrounding the flank organs was visually graded at weekly intervals on a 0-3 scale (0=bald skin, 1=slight hair growth, 2=moderate hair growth and 3=full hair growth). The result is presented in table-2 and shown graphically in FIG. 3.

[4] = test system: testosterone-induced alopecia in hamsters; assay: Vernonia anthelmintica extract against testosterone-induced alopecia in hamsters; type: in vivo; settings: day 22; visual grading on 0-3 scale (0=bald skin, 3=full hair growth); control=2.0
Description: The efficacy of an extract of Vernonia anthelmintica (prepared according to Example-1 as stated hereinafter) against testosterone-induced alopecia in hamsters was studied. Male hamsters (n=6/group) weighing 90-120 g were procured from central animal house of Panacea Biotec Ltd. for study. Drugs used to induce alopecia was Testosterone i.m. depot injection (Testoviron); B.No. K1007, German Remedies Limited; each ml of which contains Testosterone Enanthate USP . . . 250 mg and Arachis oil IP . . . qs. The route of administration of the cream compositions was topical and the duration of study was 22 days. Hamsters were divided into two different groups; one Vernonia anthelmintica extract treated groups and another testosterone control group. On day 0 of study, the fur over and around the flank organs would be shaved with electric clippers.
Testosterone was administered intramuscularly in divided doses, whereas Vernonia anthelmintica extract was applied topically twice daily for 21 days. On day 7, the fur around the flank organs was re-clipped. The amount of hair growth on the area surrounding the flank organs was visually graded on day 22 on a 0-3 scale (0=bald skin, 1=slight hair growth, 2=moderate hair growth and 3=full hair growth). Photographs of flank organ were taken on day 0 and 22. […]

[5] = test system: testosterone-induced alopecia in hamsters; assay: Dose-response of Vernonia extract gel versus Vernonia freeze dried juice gel in testosterone-challenged hamsters; type: in vivo; settings: day 22; 0-3 scale; normal control=1.31±0.18
Description: A further study was performed to study the dose-response of Vernonia extract gel and to compare its hair growth promoting effect against Vernonia freeze dried juice gel. The Vernonia extract gel was prepared by making an organic solvent extract of Vernonia and formulating it into a gel composition. The Vernonia freeze dried juice gel was prepared by expressing the juice from fresh leaves and flowering tops of Vernonia followed by freeze drying and formulating it into a gel composition. Male hamsters (n=6-8/group) weighing 80-90 g procured from the Central animal house of Panacea Biotec Ltd. were used. Drugs used to induce alopecia was Testosterone i.m. depot injection (Testoviron); B.No. K1007, German Remedies Limited; each ml of which contains Testosterone Enanthate USP . . . 250 mg and Arachis oil IP . . . qs. The following were used for conducting the study namely Vernonia extract gels B.No. 0629/030A (0.5% w/w), B.No. 0629/030B (1% w/w) and B.No. 0629/030C (2% w/w); and Vernonia freeze dried juice gels B.No. 0629/026A (1.25% w/w) and B.No. 0629/026B (2.5% w/w) (prepared according to Example-5 and Example-6 as stated hereinafter). […]
Testosterone was administered intramuscularly in divided doses, whereas Vernonia cream (s) (100 mg) was applied topically twice daily. […] The hair growth presented as mean was analyzed by one-way ANOVA followed by Student-Newman-Keuls multiple-range test. […]

[6] = test system: testosterone-induced alopecia in hamsters; assay: Strength of Vernonia creams in testosterone-induced alopecia in hamsters; type: in vivo; settings: day 22; 0-3 scale; creams 100 mg topical bid for 21 days; normal control=3
Description: Male hamsters (n=6/group) weighing 80-90 g procured from Central animal house of Panacea Biotec Ltd. were used. Drugs used to induce alopecia was Testosterone i.m. depot injection (Testoviron); B.No. K1007, German Remedies Limited; each ml of which contains Testosterone Enanthate USP . . . 250 mg and Arachis oil IP . . . qs. Four batches of Vernonia creams of different strengths were used for conducting the study namely B.No. 0629/010A (2% w/w), B.No. 0629/010C (0.2% w/w), B.No. 0629/014A (2% w/w) and B.No. 0629/014C (0.2% w/w) prepared according to Example-3 and Example 4 as stated hereinafter. The route of administration of the cream compositions was topical and the duration of study was 22 days. The fur over and around the flank organs of hamsters was shaved with electric clippers. Hamsters were divided into four different groups and allocated different treatments. The summary of different treatments is represented in Table-3.
Testosterone was administered intramuscularly in divided doses, whereas Vernonia cream(s) (100 mg) was applied topically twice daily. All the treatments were given for 21 days. On day 7, the fur around the flank organs was re-clipped. […] The hair growth presented as mean was analyzed by one-way ANOVA followed by Student-Newman-Keuls multiple-range test. […]

vernolide
IC50, antitumoral effects (leukenia cells P-388): 0.13 µg/mL | IC50, cytotoxic effects [1]: 2.0 µg/mL | IC50, antitumoral effects (leukenia cells L-1210): 0.11 µg/mL

CC(C)(C)NC(=O)[C@H]1CC[C@H]2[C@@H]3CC[C@H]4NC(=O)C=C[C@]4(C)[C@H]3CC[C@]12C [Finasteride]
Decrease of DHT concentration in the scalp ([2]; scalp): ≤ 60% | Decrease of DHT concentration in the serum ([2]; serum): up to 70% | Reversal of testosterone induced-hair loss ([3]; day 22): significantly reversed testosterone induced-hair loss | Mean ± SEM hair growth on a 0-3 scale [3]: 2.20 ± 0.339

vernodaline
IC50, antitumoral effects (leukenia cells P-388): 0.11 µg/mL | IC50, antitumoral effects (leukenia cells L-1210): 0.17 µg/mL

CCCCCCC(=O)O[C@H]1CC[C@H]2[C@@H]3CCC4=CC(=O)CC[C@]4(C)[C@H]3CC[C@]12C [Testosterone, Testosterone Enanthate]
Hair growth score [4]: 0.58±0.15 | Hair growth score [5]: 0 | Hair growth score [6]: 0.13 | Mean ± SEM hair growth on a 0-3 scale [3]: 1.33 ± 0.211
